Assay results as given in patent publication US9272047B2, “Use of biological surfactant as anti-inflammatory agent and tissue preservative solution” (Shaperon Inc., priority 2007, dated 2016).

Key:
NF-κB = test: Inhibition of E. coli LPS-stimulated NF-κB activation (CD25 expression) in 3FP CHO cells; format: cell-based, Chinese hamster; conditions: live 7AAD(−) LPS-stimulated 3FP cells
Experimental: In order to evaluate the inhibition efficacy for the activation of E. coli LPS-stimulated NF-κB in a CHO cell, % expression of CD 25 in the CHO cell was evaluated as the following method, and FACS analysis after staining with 7-AAD was carried out to evaluate the cytotoxicity. Bile salts were classified into 3 groups based on their solubility in different solvents, as follows:
The CHO cells expressing CD25 under the regulation of a nuclear factor (NF-κB) promoter, shown FIG. 2A, were used for this experiment. Toll-like receptor 2 (TLR2) and CD14 gene-transformed CHO cells (hereinafter referred to as “3FP cells”) were also used.
The next day, the cultured cells were treated with bile acid derivatives and LPS, and were incubated in a CO2 incubator for 15 hr at 37° C.
After stimulating the above incubated cells for 15 hr, the culture solution was centrifuged (1200 rpm, 5 min, 4° C.) to remove the culture supernatant. The precipitate was washed twice with 200 μl of FACS buffer (1×PBS containing 1% BSA and 1 mM EDTA). 20 μl of blocking solution (PBS containing 1:10 of normal mouse serum and 1:3 of anti-human CD14/CD32 (BD, 2.4G2) was added to each well and reacted on an ice for 30 min. A mixture solution of anti-human CD25-PE (1:16) and anti-human CD14-FITC (1:32) was added to the well and then reacted on the ice for 30 min. The reaction mixture was washed twice with 200 μl of FACS buffer, and then 200 μl of 7-AAD (1:20) was added to the reaction mixture. After the reaction mixture was reacted on the ice for 10 min, CD25 expression efficacy and cytotoxicity were analyzed by using a flow cytometer.
In order to analyze living cells, 7-AAD(−) cells were selected and an activation of nuclear transcription factor was confirmed by the increase of CD25 expression.

dendritic cells [1] = test: Inhibition of E. coli LPS-induced activation of dendritic cells (CD40, CD80, CD86, I-Ab expression); format: cell-based, mouse; conditions: 100 ng/ml E. coli LPS; CD11c(+)/7AAD(−) dendritic cells
Experimental: In order to assay the effect of sodium glycocholate on the activation procedure of antigen presenting cells, which is induced by E. coli LPS, cells were separated from the bone marrow of recombination activating gene 2 (Rag2) deficient mouse. The separated cells were plated at 2×10^5 cells/well in a 96-well plate and then treated with 1.5 ng/ml of granulocyt-macrophage colony-stimulating factor (GM-CSF) and 0.75 ng/ml of interleukin-4 followed by the differentiation of the cells into dentritic cells through 6-day incubation.
The dendritic cells were well mixed with sodium glycocholate and LPS. The mixtures were stimulated for 18 hours at 37° C., and stained with anti-CD40-FITC, anti-CD80-FITC, anti-I-Ab-PE, anti-CD86-PE, 7AAD and anti-CD11c-APC, then the cells were assayed via a flow cytometer. Each group was treated and assayed at least twice, and the results were statistically analyzed through t-test. The results were p<0.05 compared with the experimental groups treated by only LPS.
As shown FIGS. 9A-9B to 11A-11B, in order to assay only living dedritic cells, CD11c(+)/7AAD(−) cells were selected and then the expressions of dendritic cell costimulatory molecules and I-Ab were assayed.

macrophages = test: Inhibition of LPS-induced nitric oxide generation, macrophages (Griess); format: cell-based, mouse; conditions: macrophages stimulated by LPS, 18 hours
Experimental: (§1) Then, the resulting dendritic cell mixtures were plated, by […] each, in a 96-well plate. Griss reagents were added to each well, and the 96-well plate was covered with foils and kept reacting for 15 min at room temperature. Absorbance at 540 nm was measured using an ELISA reader. Macrophages separated from abdomen were also treated with sodium glycocholate, sodium taurochenodeoxycholate and sodium taurodeoxycholate, respectively, and then stimulated with LPS for 18 hours. Thereafter, the same experiments as the dentritic cells were performed to the macrophages.

dendritic cells [2] = test: Inhibition of LPS-induced nitric oxide generation, dendritic cells (Griess); format: cell-based, mouse; conditions: dendritic cells stimulated by LPS, 18 hours
Experimental: as §1

Compound	inhibition effect for LPS-stimulated CD25 expression (NF-κB activation) (NF-κB)	increased expression of CD40, CD80, CD86 and I-Ab (dendritic cells [1])	generation of NO (macrophages)	generation of NO (dendritic cells [2])
C[C@H](CCC(=O)NCCS(=O)(=O)O)[C@H]1CC[C@H]2[C@@H]3[C@H](O)C[C@@H]4C[C@H](O)CC[C@]4(C)[C@H]3C[C@H](O)[C@]12C [sodium taurocholate hydrate]	showed an inhibition effect	–	–	–
C[C@H](CCC(=O)O)[C@H]1CC[C@H]2[C@@H]3C(=O)C[C@@H]4CC(=O)CC[C@]4(C)[C@H]3CC(=O)[C@]12C [dehydrocholic acid]	showed inhibition effects	–	–	–
C[C@H](CCC(=O)NCC(=O)O)[C@H]1CC[C@H]2[C@@H]3[C@H](O)C[C@@H]4C[C@H](O)CC[C@]4(C)[C@H]3C[C@H](O)[C@]12C [glycocholic acid hydrate]	showed inhibition effects	–	–	–
C[C@H](CCC(=O)NCCS(=O)(=O)[O-])[C@H]1CC[C@H]2[C@@H]3CC[C@@H]4C[C@H](O)CC[C@]4(C)[C@H]3C[C@H](O)[C@]12C.[Na+] [sodium taurodeoxycholate hydrate]	showed an inhibition effect	inhibited depending on the concentration	inhibited	inhibited
C[C@H](CCC(=O)O)[C@H]1CC[C@H]2[C@@H]3[C@H](O)C[C@@H]4C[C@H](O)CC[C@]4(C)[C@H]3C[C@H](O)[C@]12C [cholic acid]	showed inhibition effects	–	–	–
sodium deoxycholate	showed an inhibition effect	–	–	–
C[C@H](CCC(=O)O)[C@H]1CC[C@H]2[C@@H]3[C@H](O)C[C@@H]4C[C@H](O)CC[C@]4(C)[C@H]3CC[C@]12C [chenodeoxycholic acid]	showed inhibition effects	–	–	–
C[C@H](CCC(=O)NCCS(=O)(=O)O)[C@H]1CC[C@H]2C3[C@H](O)C[C@@H]4C[C@H](O)CC[C@]4(C)[C@H]3CC[C@]12C (stereo partly drawn) [sodium taurochenodeoxycholate]	showed an inhibition effect	inhibited depending on the concentration	inhibited	inhibited
C[C@H](CCC(=O)NCC(=O)[O-])[C@H]1CC[C@H]2[C@@H]3[C@H](O)C[C@@H]4C[C@H](O)CC[C@]4(C)[C@H]3CC[C@]12C.[Na+] [sodium glycochenodeoxycholate]	showed an inhibition effect	–	–	–
